Source: article PMC12040169 (PLOS Biology, 2025)

Legend:
[1] = system: T1, CTL2-GFP (C. trachomatis L2/434/Bu, GFP-expressing); assay: microbe, parasite or virus in culture; design: Intracellular C. trachomatis growth in HeLa cells, bulk GFP fluorescence relative to DMSO; settings: Chlamydia trachomatis, HeLa, 28.5 h; bulk GFP, mean of 2; read-out: % of control remaining
T1 construct: L2/434/Bu, GFP-expressing
Experimental: MICs were calculated as described above.

[2] = in vitro; design: Viability of infected HeLa host cells, resazurin conversion, bulk resorufin fluorescence relative to DMSO; settings: human, hela cells; bulk resorufin, mean of 2
[3] = system: T2, C. trachomatis L2/434/Bu expressing GFP (CTL2-GFP); assay: microbe, parasite or virus in culture; design: C. trachomatis total inclusion area by high-content imaging, normalised to DMSO; settings: Chlamydia trachomatis, HeLa, 28.5 h; total inclusion area; read-out: % of control remaining
T2 construct: L2/434/Bu GFP intracellular growth in HeLa cells
Source text: We screened a library of 36,785 small molecules displaying drug-like properties and covering a wide chemical space (Fig 1A and S2A Data). In this process, we also complemented the assay described above with an imaging-based readout (Fig 1B). After measurements of bulk GFP and resorufin fluorescence, cells were fixed, stained with the DNA dye Hoechst, and imaged at a high-content imaging platform to detect chlamydial inclusions (GFP) and host cell nuclei (Hoechst). The total area and number of inclusions in individual wells and the number of nuclei then served as additional proxies for chlamydial growth and host cell viability. […] MICs were calculated as described above.

SMILES | activity at 1 µM [1] | activity at 5 µM [1] | activity at 10 µM [1] | viability at 28.5 h, 1 µM [2] | viability at 28.5 h, 5 µM [2] | viability at 28.5 h, 10 µM [2] | activity at 1 µM [3] | activity at 5 µM [3] | activity at 10 µM [3]
CC(C)(CN)CN(Cc1ccccc1Br)C(=O)NC(c1ccccc1)c1ccccc1 [CBK002488C] | 150% | 114% | 85.7% | 92.2% | 93.1% | 90% | 112% | 116% | 38.2%
CN(C(=O)c1ccc(Cl)c(Cl)c1)[C@H]1CCC[C@H]1N1CCCC1 [CBK003411C] | 32.2% | 0.223% | 1.01% | 112% | 111% | 118% | 52.8% | 1.24% | 0.29%
FC(F)(F)c1ccc(N2CCNCC2)nc1OCc1ccc2c(c1)OCCO2 [CBK003994A] | 106% | 40.3% | 22.5% | 100% | 103% | 96.6% | 82.5% | 8.88% | 7.41%
CCOc1ccc2nc(NC(=N)N)nc(C)c2c1 [CBK010384C] | 121% | 24.6% | 4.24% | 90.4% | 102% | 94.8% | 87% | 20.7% | 1.75%
CC(=O)NC[C@H]1CN(c2ccc(C#N)c(C)c2)C(=O)O1 [CBK010393] | 120% | 98% | 55.2% | 89.7% | 90.3% | 89.8% | 102% | 94.2% | 42.5%
O=C(O)c1cn(C2CC2)c2cc(N3CCNCC3)c(F)cc2c1=O [CBK011645] | 12.8% | 1.31% | 0% |  |  |  | 11.1% | 0.824% | 0.167%
c1c(C2CC2)[nH]c2nc(N3CCCC3)nc(N3CCCC3)c12 [CBK016707G] | 3.94% | 11.1% | 20.9% | 99.1% | 96.9% | 86.9% | 0.765% | 0.748% | 3.52%
N=C(N)SCc1csc(-c2ccc(Br)cc2)n1 [CBK017064C] | 126% | 97.9% | 33.1% | 90.5% | 88.9% | 91.1% | 80.7% | 91.3% | 25.6%
CC(=O)NC[C@H]1CN(c2ccc(C3=CC[S+]([O-])CC3)c(F)c2)C(=O)O1 (stereo partly drawn) [CBK017555] | 134% | 11.9% | 18.3% | 88% | 95.4% | 86.3% | 85.7% | 7.09% | 1.05%
CC(NC(C)(C)C)C(O)COc1ccc(Cl)c2c1C1CCC2CC1 (stereo not drawn) [CBK017752C] | 125% | 126% | 66.4% | 90.2% | 95% | 92.2% | 68% | 78.7% | 17.5%
O=C(CCN1CCCCC1)Nc1ccc2c(=O)n3c(nc2c1)/C(=C/c1ccccc1)CC3 [CBK017786] | 142% | 56.7% | 26.3% | 91.6% | 90.4% | 92.6% | 109% | 20.7% | 10.4%
